The test system of one data set is NCI-H358. As to the kind of experiment: In vitro antiproliferative MTT assay. Format: cell-based. The following applies: Homo sapiens, NCI-H358, 72 h, mean ± SD. As for the experimental part: (§1) Human NSCLC cell lines (NCI-H460, NCI-H358 and A549) were obtained from ATCC. All cell lines were grown in RPMI medium supplemented with 10% fetal bovine serum (FBS) and antibiotics and incubated at 37 °C in a humidified atmosphere with 5% CO2.
(§2) Antiproliferative activities to various compounds was assessed using MTT assay. In brief, 2000–5000 cells were seeded in each well of 96-well plates and incubated at 37 °C overnight before drug treatment. After a three-day drug treatment, MTT solution was added to each well and the plates were further incubated at 37 °C for 6 h. Measurement of cell viability was assessed by absorbance at 570 nm. The IC50 values for each drug were determined using CompuSyn software based on the median-effect principle and plot.
A general note: Tetrazolium dyes change colour on reduction, which living cells bring about.

Another data set relates to NCI-H460. Put plainly: In vitro antiproliferative MTT assay. It counts as cell-based. The following applies: Homo sapiens, NCI-H460, 72 h, mean ± SD. As for the experimental part:
as §1, §2

In the next data set the test system is A549. As to the kind of experiment: In vitro antiproliferative MTT assay. The note with it: Homo sapiens, A549, 72 h, mean ± SD. Format: cell-based. The procedure: as §1, §2
Data set [1] can be described thus: Water solubility by LC-MS analysis. It counts as physicochemical. The note with it: for solubility: 25 °C, thermodynamic from solid, room temperature (25 ± 1 °C). The text has this:
1-TFA, and 2-TFA with the linkage of L-valine-TFA side chain on either or both of the phenol groups were expected to show an increment of water solubility. We used LC-MS analysis to determine the water solubility of DMCU, 1-TFA, and 2-TFA. Initially, the LC signals detected by ESI+ mode for each compound were assigned as follows: [M + Na]^+ for DMCU, [M + H]^+ for 1-TFA, and [M + 2H]^2+ for 2-TFA (Figure 3A). The extracted ion chromatogram (XIC) was acquired by extracting the m/z signal of 419.1461 for DMCU, 583.2652 for 1-TFA, and 385.1865 for 2-TFA with a tolerance of ±5 ppm for each sample. The retention time of signals obtained from reverse phase liquid chromatography (RPLC) was 5.15 min (DMCU), 3.97 min (1-TFA), and 3.22 min (2-TFA) (Figure 3B). The limit of quantification was 0.16 ng for DMCU (S/N = 375.81) and 1 ng for 1-TFA (S/N = 231.24) or 2-TFA (S/N = 131.19). […] Next, to determine the water solubility of DMCU, 1-TFA and 2-TFA, aqueous solutions of these compounds at different concentrations were prepared for the generation of corresponding calibration curves.
The quantitative analysis was performed using LC-MS and the results were shown in Figure 3C–E. Corresponding saturated water solutions were prepared and then diluted with ultrapure water for LC-MS analysis. […] For the analysis of DMCU water solubility, a clear solution of DMCU in 40% MeOH and 60% water (with a concentration of 1000 ppm) was prepared and divided into four portions. Each part was diluted with an appropriate amount of ultrapure water, resulting in DMCU precipitates, and the precipitates were then removed by centrifugation to give four samples with theoretical concentrations of 0.8, 4, 20, 100 ppm, respectively. The calculated concentrations of these […] samples were decided by comparing the LC-MS signals of corresponding samples to the calibration curves. (Figure 3F). The maximum concentration of DMCU in water was confirmed as 18 ppm at room temperature.
The stock solutions of 1-TFA and 2-TFA were prepared by dissolving 20 mg of 1-TFA and 2-TFA, respectively, in 1 mL of 1% formic acid(aq). The standard solution of 1-TFA or 2-TFA of 0.5, 1.25, 2.5, 5 and 12.5 μg/mL was prepared by diluting the aforementioned stock solution with an adequate amount of 40% methanol in ultrapure water. The stock solution of DMCU was prepared by dissolving 10 mg of DMCU in 1 mL of methanol. The DMCU stock solution was diluted with 40% methanol in ultrapure water to afford three standard solutions with concentrations of 0.08, 0.4, and 2 μg/mL.
The saturated aqueous solutions of compound 1-TFA and 2-TFA were prepared by a three-steps sequence including supersaturated solution preparation (addition of 20 mg compounds into 50 μL ultrapure water), centrifugation (10 min at 14,000× g), and collection of the resulting supernatants to afford the desired solutions. The saturated aqueous solutions were then diluted by ultrapure water as the ratio of 1 to 100,000 for LC-MS analysis.
The LC-MS system consisted of an ultraperformance liquid chromatography (UPLC) system (ACQUITY UPLC I-Class, Waters, Milford, MA, USA and an ESI/APCI source of 4 kDa quadrupole time-of-flight mass spectrometer (Waters VION, Waters, Milford, MA, USA). A BEH C18 column (2.1 × 100 mm, Walters, Milford, MA, USA) was equipped to perform chromatographic separation. The flow rate of 0.2 mL/min with a column temperature of 35 °C was set for each sample injection. The elution started with 60% mobile phase A (ultrapure water + 0.1% formic acid) and 40% mobile phase B (100% methanol + 0.1% formic acid), then held at 40% B for 0.5 min, raised to 95% B in 5.5 min, held at 95% B for 1 min, and then lowered to 40% B in 1 min. The column was equilibrated by pumping 40% B for 4 min. […]

Data set [2] concerns NCI-H460, NCI-H358 and A549 cell lines. Put plainly: In vitro antiproliferative MTT assay, range over the NSCLC lines. It counts as cell-based. The following applies: Homo sapiens, read-out: IC50 values in these cell lines. As for the experimental part:
as §1, §2

≈ marks a conversion by molar mass, not a printed value. Where “and” joins values, the source holds several entries; their conditions need not be identical. Equal entries are not always repeated. Structures can show the parent of a compound that is named as a salt.

Consider `COc1cc(/C=C/C(=O)C(C)(C)C(=O)/C=C/c2ccc(OC(=O)OCCNC(=O)[C@@H](N)C(C)C)c(OC)c2)ccc1O` [Compound 1-TFA], for which the values for the IC50 in the data set with NCI-H358, in the data set on NCI-H460 and in the data set with A549 were 1.92 ± 0.13 µM, 1.95 ± 0.16 µM and 3.17 ± 0.14 µM, respectively. For the same molecule, the solubility (as a rule, how much of the substance goes into solution per volume) in data set [1] (water, LC-MS) came out at 250 mg/mL. For the same molecule, the “fold increased solubility compared to DMCU” value in data set [1] (water, room temperature) is 13,700 fold and > 10,000 fold.
On to `COc1cc(/C=C/C(=O)C(C)(C)C(=O)/C=C/c2ccc(OC(=O)OCCNC(=O)[C@@H](N)C(C)C)c(OC)c2)ccc1OC(=O)OCCNC(=O)[C@@H](N)C(C)C` [Compound 2-TFA], for which the IC50 – broadly, the concentration that gives 50% inhibition – in the data set on NCI-H358 amounted to 1.26 ± 0.06 µM; in the data set on NCI-H460 it was 1.69 ± 0.04 µM; with A549 it was 1.99 ± 0.24 µM. The solubility in data set [1] (water, LC-MS) was 376 mg/mL. For the same molecule, the “fold increased solubility compared to DMCU” value in data set [1] (water, room temperature) is 20,800 fold and > 10,000 fold.
Turning to `COc1cc(/C=C/C(=O)C(C)(C)C(=O)/C=C/c2ccc(O)c(OC)c2)ccc1O` [DMCU, 4,4-Dimethylcurcumin], the IC50 is 1.62 ± 0.12 µM with NCI-H358, 2.13 ± 0.16 µM in the data set with NCI-H460, 2.5 ± 0.03 µM in the data set with A549 and 1.62 to 2.5 µM in data set [2]. Besides, in data set [1] (room temperature, dilution of 40% MeOH solution with water, precipitate removed, LC-MS), the “maximum concentration in water” value amounted to 18 ppm. Moreover, the “water solubility (in words)” value in data set [1] (water) is reported as “virtually insoluble in water”. The amount in solution in data set [1] (water, LC-MS) (solubility) came to 0.018 mg/mL (≈ 45.4 µM).
